Data from patent publication US20250154197A1, “LIPOLYTIC PEPTIDES” (FUNDACIÓ HOSPITAL UNIVERSITARI VALL D'HEBRON - INSTITUT DE …, priority 2021, published 2025).
Where no end group is shown, it is not given here. [ ]: non-standard residue; d: D form.

System: 3T3-L1 mouse adipocytes
Test: Lipolytic activity: glycerol release in differentiated 3T3-L1 mouse adipocytes (12 h)
Type: cell-based
Conditions: 3T3-L1 mouse adipocytes, 12 h
Protocol: JCRB9014-A) from Tebu-Bio (Tebu-bio, Barcelona, Spain). Briefly, mouse adipocytes (3T3-L1 cells) were cultured in 48 well plates as described previously (Saez-Lopez et al., 2020). Adipocytes were differentiated using cell culture reagents purchased from Tebu-Bio and following the manufacturer's instructions. At day of differentiation cells were treated in duplicates with vehicle (DMSO), Caffeine (100 μg/ml), and each of the peptides at the specified doses in Table 6a below. At the end of the experiment (12 h), supernatants were collected and glycerol content was measured using a Glycerol Assay Kit (Sigma) following manufacturer's instructions.

DPEGVFY (H-[dD][dP][dE]G[dV][dF][dY]-OH; SMILES CC(C)[C@@H](NC(=O)CNC(=O)[C@@H](CCC(=O)O)NC(=O)[C@H]1CCCN1C(=O)[C@H](N)CC(=O)O)C(=O)N[C@H](Cc1ccccc1)C(=O)N[C@H](Cc1ccc(O)cc1)C(=O)O) [GP3D-7 I II VIII, N-term NH2, C-term COOH]
Lipolysis Activity measured as Glycerol (μM) release in media (1 μg/ml): 485 µM
Lipolysis Activity measured as Glycerol (μM) release in media (10 μg/ml): 325 µM
Lipolysis Activity measured as Glycerol (μM) release in media (100 μg/ml): 340 µM

DPEGVIFY (H-[dD][dP][dE]G[dV][dI][dF][dY]-OH; not fully specified) [GP3D-8 I II, N-term NH2, C-term COOH]
Lipolysis Activity measured as Glycerol (μM) release in media (1 μg/ml): 401 µM
Lipolysis Activity measured as Glycerol (μM) release in media (10 μg/ml): 474 µM
Lipolysis Activity measured as Glycerol (μM) release in media (100 μg/ml): 468 µM

DPEGVLY (H-[dD][dP][dE]G[dV][dL][dY]-OH; SMILES CC(C)C[C@@H](NC(=O)[C@H](NC(=O)CNC(=O)[C@@H](CCC(=O)O)NC(=O)[C@H]1CCCN1C(=O)[C@H](N)CC(=O)O)C(C)C)C(=O)N[C@H](Cc1ccc(O)cc1)C(=O)O) [GP3D-DM3, N-term NH2, C-term COOH]
Lipolysis Activity measured as Glycerol (μM) release in media (100 μg/ml): 307 µM

TDPEGVIF (H-[dT][dD][dP][dE]G[dV][dI][dF]-OH; not fully specified) [GP3D-8 II X, N-term NH2, C-term COOH]
Lipolysis Activity measured as Glycerol (μM) release in media (1 μg/ml): 391 µM
Lipolysis Activity measured as Glycerol (μM) release in media (10 μg/ml): 434 µM
Lipolysis Activity measured as Glycerol (μM) release in media (100 μg/ml): 493 µM

TDPEGVIFY (H-[dT][dD][dP][dE]G[dV][dI][dF][dY]-OH; not fully specified) [GP3D-9 II, N-term NH2, C-term COOH]
Lipolysis Activity measured as Glycerol (μM) release in media (100 μg/ml): 315 µM

TDPEGVIY (H-[dT][dD][dP][dE]G[dV][dI][dY]-OH; not fully specified) [GP3D-8 II IX, N-term NH2, C-term COOH]
Lipolysis Activity measured as Glycerol (μM) release in media (1 μg/ml): 557 µM
Lipolysis Activity measured as Glycerol (μM) release in media (10 μg/ml): 508 µM
Lipolysis Activity measured as Glycerol (μM) release in media (100 μg/ml): 370 µM

TWDPEG (H-[dT][dW][dD][dP][dE]G-OH; SMILES C[C@H](O)[C@@H](N)C(=O)N[C@H](Cc1c[nH]c2ccccc12)C(=O)N[C@H](CC(=O)O)C(=O)N1CCC[C@@H]1C(=O)N[C@H](CCC(=O)O)C(=O)NCC(=O)O) [GP3D-6 VII VIII IX X, N-term NH2, C-term COOH]
Lipolysis Activity measured as Glycerol (μM) release in media (1 μg/ml): 404 µM
Lipolysis Activity measured as Glycerol (μM) release in media (10 μg/ml): 327 µM

TWDPEGIFY (H-[dT][dW][dD][dP][dE]G[dI][dF][dY]-OH; not fully specified) [GP3D-9 VII, N-term NH2, C-term COOH]
Lipolysis Activity measured as Glycerol (μM) release in media (100 μg/ml): 354 µM

TWDPEGVI (H-[dT][dW][dD][dP][dE]G[dV][dI]-OH; not fully specified) [GP3D-8 IX X, N-term NH2, C-term COOH]
Lipolysis Activity measured as Glycerol (μM) release in media (1 μg/ml): 396 µM
Lipolysis Activity measured as Glycerol (μM) release in media (10 μg/ml): 383 µM
Lipolysis Activity measured as Glycerol (μM) release in media (100 μg/ml): 528 µM

TWDPEGVIF (H-[dT][dW][dD][dP][dE]G[dV][dI][dF]-OH; not fully specified) [GP3D-9 X, N-term NH2, C-term COOH]
Lipolysis Activity measured as Glycerol (μM) release in media (100 μg/ml): 493 µM

TWDPEGVIFY [GP3D-NH2] ([dT][dW][dD][dP][dE]G[dV][dI][dF][dY]-NH2; N-terminus assumed; SMILES CC[C@@H](C)[C@@H](NC(=O)[C@H](NC(=O)CNC(=O)[C@@H](CCC(=O)O)NC(=O)[C@H]1CCCN1C(=O)[C@@H](CC(=O)O)NC(=O)[C@@H](Cc1c[nH]c2ccccc12)NC(=O)[C@H](N)[C@H](C)O)C(C)C)C(=O)N[C@H](Cc1ccccc1)C(=O)N[C@H](Cc1ccc(O)cc1)C(N)=O) [N-term NH2, C-term CONH2]
Lipolysis Activity measured as Glycerol (μM) release in media (1 μg/ml): 506 µM
Lipolysis Activity measured as Glycerol (μM) release in media (10 μg/ml): 449 µM
Lipolysis Activity measured as Glycerol (μM) release in media (100 μg/ml): 368 µM

TWDPEGVIY (H-[dT][dW][dD][dP][dE]G[dV][dI][dY]-OH; not fully specified) [GP3D-9 IX, N-term NH2, C-term COOH]
Lipolysis Activity measured as Glycerol (μM) release in media (100 μg/ml): 356 µM

TWDPEVIFY (H-[dT][dW][dD][dP][dE][dV][dI][dF][dY]-OH; not fully specified) [GP3D-9 VI, N-term NH2, C-term COOH]
Lipolysis Activity measured as Glycerol (μM) release in media (100 μg/ml): 315 µM

TWDPGVIFY (H-[dT][dW][dD][dP]G[dV][dI][dF][dY]-OH; not fully specified) [GP3D-9 V, N-term NH2, C-term COOH]
Lipolysis Activity measured as Glycerol (μM) release in media (100 μg/ml): 394 µM

TWPEGVIFY (H-[dT][dW][dP][dE]G[dV][dI][dF][dY]-OH; not fully specified) [GP3D-9 III, N-term NH2, C-term COOH]
Lipolysis Activity measured as Glycerol (μM) release in media (100 μg/ml): 346 µM

WDNEGLY (H-[dW][dD][dN][dE]G[dL][dY]-OH; SMILES CC(C)C[C@@H](NC(=O)CNC(=O)[C@@H](CCC(=O)O)NC(=O)[C@@H](CC(N)=O)NC(=O)[C@@H](CC(=O)O)NC(=O)[C@H](N)Cc1c[nH]c2ccccc12)C(=O)N[C@H](Cc1ccc(O)cc1)C(=O)O) [GP3D-DM4, N-term NH2, C-term COOH]
Lipolysis Activity measured as Glycerol (μM) release in media (1 μg/ml): 469 µM
Lipolysis Activity measured as Glycerol (μM) release in media (10 μg/ml): 416 µM
Lipolysis Activity measured as Glycerol (μM) release in media (100 μg/ml): 309 µM

WDPEG (H-[dW][dD][dP][dE]G-OH; SMILES N[C@H](Cc1c[nH]c2ccccc12)C(=O)N[C@H](CC(=O)O)C(=O)N1CCC[C@@H]1C(=O)N[C@H](CCC(=O)O)C(=O)NCC(=O)O) [GP3D-5 I VII VIII IX X, N-term NH2, C-term COOH]
Lipolysis Activity measured as Glycerol (μM) release in media (1 μg/ml): 368 µM
Lipolysis Activity measured as Glycerol (μM) release in media (10 μg/ml): 349 µM
Lipolysis Activity measured as Glycerol (μM) release in media (100 μg/ml): 398 µM

WDPEGVIF (H-[dW][dD][dP][dE]G[dV]I[dF]-OH; not fully specified (residue 7)) [GP3D-8 I X, N-term NH2, C-term COOH]
Lipolysis Activity measured as Glycerol (μM) release in media (1 μg/ml): 616 µM
Lipolysis Activity measured as Glycerol (μM) release in media (10 μg/ml): 465 µM
Lipolysis Activity measured as Glycerol (μM) release in media (100 μg/ml): 441 µM

WDPEGVIFY (H-[dW][dD][dP][dE]G[dV]I[dF][dY]-OH; not fully specified (residue 7)) [GP3D-9 I, N-term NH2, C-term COOH]
Lipolysis Activity measured as Glycerol (μM) release in media (100 μg/ml): 344 µM

WDPEGVIY (H-[dW][dD][dP][dE]G[dV]I[dY]-OH; not fully specified (residue 7)) [GP3D-8 I IX, N-term NH2, C-term COOH]
Lipolysis Activity measured as Glycerol (μM) release in media (1 μg/ml): 452 µM
Lipolysis Activity measured as Glycerol (μM) release in media (10 μg/ml): 426 µM
Lipolysis Activity measured as Glycerol (μM) release in media (100 μg/ml): 588 µM
